Reference: patent US20120035165A1, “Use of fungicidal compound compositions for controlling certain rust fungi” (Bayer CropScience AG, priority 2008, published 2012)

Test system: Phakopsora pachyrhizi
Test: Phakopsora test (soybeans)/protective
Assay type: in vivo, Phakopsora pachyrhizi on soybeans
Settings: protective spray on young soybean plants, inoculated 1 day after spraying, evaluated 10 days after inoculation
Method: Phakopsora Test (Soybeans)/Protective Solvent: 28.5 parts by weight of acetone Emulsifier: 1.5 parts by weight of polyoxyethylene alkyl phenyl ether To produce a suitable preparation of active compound, 1 part by weight of active compound or active compound combination is mixed with the stated amounts of solvent and emulsifier, and the concentrate is diluted with water to the desired concentration. To test for protective activity, young plants are sprayed with the preparation of active compound or active compound combination at the stated rate of application. After the spray coating has dried on, the plants are placed in a greenhouse at a temperature of approximately 23° C. and a relative atmospheric humidity of approximately 70%. 1 day after spraying, the plants are inoculated with an aqueous spore suspension of the causal agent of soybean rust (Phakopsora pachyrhizi). The plants are then placed in a greenhouse at approximately 20° C. and a relative atmospheric humidity of approximately 80%. The test is evaluated 10 days after the inoculation. 0% means an efficacy which corresponds to that of the control, while an efficacy of 100% means that no disease is observed.

OC(Cc1ccccc1Cl)(Cn1nc[nH]c1=S)C1(Cl)CC1 (centres unmarked) [(III-1) Prothioconazole, Prothioconazole]
Efficacy in % (rate of application 0.5 ppm): 50%

Cn1cc(C(=O)Nc2ccc(F)cc2-c2ccc(Cl)c(Cl)c2)c(C(F)F)n1 [(I-2) Bixafen, N-(3′,4′-dichloro-5-fluoro-1,1′-biphenyl-2-yl)-3-(difluoromethyl)-1-methyl-1H-pyrazole-4-carboxamide]
Efficacy in % (rate of application 10 ppm): 50%
